Measurements from PubChem BioAssay (NCI).
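Each compound was tested at five concentrations against cells in 96-well plates for 48 hours. TGI marks complete inhibition of growth.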

Tests used:
Assay in all cases: growth of human tumour cells (NCI), 48 h
PC-3 prostate = tested on: PC-3 prostate
SF-268 CNS = tested on: SF-268 CNS
HCT-116 colon = tested on: HCT-116 colon
OVCAR-8 ovarian = tested on: OVCAR-8 ovarian
SF-295 CNS = tested on: SF-295 CNS
M14 melanoma = tested on: M14 melanoma
KM12 colon = tested on: KM12 colon
HCC-2998 colon = tested on: HCC-2998 colon
UACC-62 melanoma = tested on: UACC-62 melanoma
HOP-62 NSCLC = tested on: HOP-62 NSCLC
LOX IMVI melanoma = tested on: LOX IMVI melanoma
RXF 393 renal = tested on: RXF 393 renal
ACHN renal = tested on: ACHN renal
DU-145 prostate = tested on: DU-145 prostate
MALME-3M melanoma = tested on: MALME-3M melanoma
SK-MEL-2 melanoma = tested on: SK-MEL-2 melanoma
SK-MEL-5 melanoma = tested on: SK-MEL-5 melanoma
SN12C renal = tested on: SN12C renal
CCRF-CEM leukemia = tested on: CCRF-CEM leukemia
K-562 leukemia = tested on: K-562 leukemia
HT29 colon = tested on: HT29 colon
SW-620 colon = tested on: SW-620 colon
SK-OV-3 ovarian = tested on: SK-OV-3 ovarian
SNB-75 CNS = tested on: SNB-75 CNS
A498 renal = tested on: A498 renal
HOP-92 NSCLC = tested on: HOP-92 NSCLC
HS 578T breast = tested on: HS 578T breast
NCI-H226 lung = tested on: NCI-H226 lung
MCF7 breast = tested on: MCF7 breast
COLO 205 colon = tested on: COLO 205 colon
MDA-N = tested on: MDA-N
CAKI-1 renal = tested on: CAKI-1 renal
MDA-MB-231 breast = tested on: MDA-MB-231 breast
SF-539 CNS = tested on: SF-539 CNS
IGROV1 ovarian = tested on: IGROV1 ovarian
U251 CNS = tested on: U251 CNS
OVCAR-4 ovarian = tested on: OVCAR-4 ovarian
OVCAR-3 ovarian = tested on: OVCAR-3 ovarian
SK-MEL-28 melanoma = tested on: SK-MEL-28 melanoma
SNB-19 CNS = tested on: SNB-19 CNS
BT-549 breast = tested on: BT-549 breast
T-47D breast = tested on: T-47D breast
HCT-15 colon = tested on: HCT-15 colon
OVCAR-5 ovarian = tested on: OVCAR-5 ovarian
UO-31 renal = tested on: UO-31 renal
EKVX NSCLC = tested on: EKVX NSCLC
A549 NSCLC = tested on: A549 NSCLC
NCI-H23 lung = tested on: NCI-H23 lung
MOLT-4 leukemia = tested on: MOLT-4 leukemia
NCI-H460 lung = tested on: NCI-H460 lung
HL-60(TB) leukemia = tested on: HL-60(TB) leukemia
MDA-MB-435 = tested on: MDA-MB-435
786-0 renal = tested on: 786-0 renal
TK-10 renal = tested on: TK-10 renal
SR leukemia = tested on: SR leukemia
NCI-H522 lung = tested on: NCI-H522 lung
NCI/ADR-RES ovarian = tested on: NCI/ADR-RES ovarian
UACC-257 melanoma = tested on: UACC-257 melanoma
RPMI-8226 leukemia = tested on: RPMI-8226 leukemia

Compound: COc1ccc(C2=Cc3nc2c(-c2ccccc2)c2ccc([nH]2)c(-c2ccccc2)c2nc(c(-c4ccccc4)c4ccc([nH]4)c3-c3ccccc3)C=C2)cc1
- TGI (PC-3 prostate): > 100 µM
- TGI (SF-268 CNS): > 100 µM
- TGI (HCT-116 colon): > 100 µM
- TGI (OVCAR-8 ovarian): > 100 µM
- TGI (SF-295 CNS): > 100 µM
- TGI (M14 melanoma): > 100 µM
- TGI (KM12 colon): > 100 µM
- TGI (HCC-2998 colon): > 100 µM
- TGI (UACC-62 melanoma): > 100 µM
- TGI (HOP-62 NSCLC): > 100 µM
- TGI (LOX IMVI melanoma): > 100 µM
- TGI (RXF 393 renal): > 100 µM
- TGI (ACHN renal): > 100 µM
- TGI (DU-145 prostate): > 100 µM
- TGI (MALME-3M melanoma): > 100 µM
- TGI (SK-MEL-2 melanoma): > 100 µM
- TGI (SK-MEL-5 melanoma): > 100 µM
- TGI (SN12C renal): > 100 µM
- TGI (CCRF-CEM leukemia): > 100 µM
- TGI (K-562 leukemia): > 100 µM
- TGI (HT29 colon): > 100 µM
- TGI (SW-620 colon): > 100 µM
- TGI (SK-OV-3 ovarian): > 100 µM
- TGI (SNB-75 CNS): > 100 µM
- TGI (A498 renal): > 100 µM
- TGI (HOP-92 NSCLC): > 100 µM
- TGI (HS 578T breast): > 100 µM
- TGI (NCI-H226 lung): > 100 µM
- TGI (MCF7 breast): > 100 µM
- TGI (COLO 205 colon): > 100 µM
- TGI (MDA-N): > 100 µM
- TGI (CAKI-1 renal): > 100 µM
- TGI (MDA-MB-231 breast): > 100 µM
- TGI (SF-539 CNS): > 100 µM
- TGI (IGROV1 ovarian): > 100 µM
- TGI (U251 CNS): 91.3 µM
- TGI (OVCAR-4 ovarian): > 100 µM
- TGI (OVCAR-3 ovarian): > 100 µM
- TGI (SK-MEL-28 melanoma): > 100 µM
- TGI (SNB-19 CNS): > 100 µM
- TGI (BT-549 breast): > 100 µM
- TGI (T-47D breast): > 100 µM
- TGI (HCT-15 colon): > 100 µM
- TGI (OVCAR-5 ovarian): > 100 µM
- TGI (UO-31 renal): > 100 µM
- TGI (EKVX NSCLC): > 100 µM
- TGI (A549 NSCLC): > 100 µM
- TGI (NCI-H23 lung): > 100 µM
- TGI (MOLT-4 leukemia): > 100 µM
- TGI (NCI-H460 lung): > 100 µM
- TGI (HL-60(TB) leukemia): > 100 µM
- TGI (MDA-MB-435): > 100 µM
- TGI (786-0 renal): > 100 µM
- TGI (TK-10 renal): > 100 µM
- TGI (SR leukemia): > 100 µM

Compound: CC1CC(c2ccccc2)Nc2nc3ccccc3n21 (stereo unspecified)
- TGI (PC-3 prostate): > 100 µM
- TGI (SF-268 CNS): > 100 µM
- TGI (HCT-116 colon): > 100 µM
- TGI (OVCAR-8 ovarian): > 100 µM
- TGI (SF-295 CNS): > 100 µM
- TGI (M14 melanoma): > 100 µM
- TGI (KM12 colon): > 100 µM
- TGI (UACC-62 melanoma): > 100 µM
- TGI (HOP-62 NSCLC): > 100 µM
- TGI (LOX IMVI melanoma): > 100 µM
- TGI (RXF 393 renal): > 100 µM
- TGI (ACHN renal): > 100 µM
- TGI (MALME-3M melanoma): > 100 µM
- TGI (SK-MEL-2 melanoma): > 100 µM
- TGI (SK-MEL-5 melanoma): > 100 µM
- TGI (CCRF-CEM leukemia): > 100 µM
- TGI (K-562 leukemia): > 100 µM
- TGI (NCI-H522 lung): > 100 µM
- TGI (HT29 colon): > 100 µM
- TGI (SW-620 colon): > 100 µM
- TGI (SK-OV-3 ovarian): > 100 µM
- TGI (SNB-75 CNS): > 100 µM
- TGI (A498 renal): > 100 µM
- TGI (HOP-92 NSCLC): > 100 µM
- TGI (NCI/ADR-RES ovarian): > 100 µM
- TGI (HS 578T breast): > 100 µM
- TGI (NCI-H226 lung): > 100 µM
- TGI (UACC-257 melanoma): > 100 µM
- TGI (MCF7 breast): > 100 µM
- TGI (COLO 205 colon): > 100 µM
- TGI (MDA-N): > 100 µM
- TGI (CAKI-1 renal): > 100 µM
- TGI (MDA-MB-231 breast): > 100 µM
- TGI (SF-539 CNS): > 100 µM
- TGI (IGROV1 ovarian): > 100 µM
- TGI (U251 CNS): > 100 µM
- TGI (OVCAR-4 ovarian): > 100 µM
- TGI (RPMI-8226 leukemia): > 100 µM
- TGI (OVCAR-3 ovarian): > 100 µM
- TGI (SK-MEL-28 melanoma): > 100 µM
- TGI (SNB-19 CNS): > 100 µM
- TGI (BT-549 breast): > 100 µM
- TGI (T-47D breast): > 100 µM
- TGI (HCT-15 colon): > 100 µM
- TGI (OVCAR-5 ovarian): > 100 µM
- TGI (UO-31 renal): > 100 µM
- TGI (EKVX NSCLC): > 100 µM
- TGI (A549 NSCLC): > 100 µM
- TGI (NCI-H23 lung): > 100 µM
- TGI (MOLT-4 leukemia): > 100 µM
- TGI (NCI-H460 lung): > 100 µM
- TGI (HL-60(TB) leukemia): > 100 µM
- TGI (MDA-MB-435): > 100 µM
- TGI (786-0 renal): > 100 µM
- TGI (TK-10 renal): > 100 µM
- TGI (SR leukemia): > 100 µM
